Measured values taken from US20040063662A1, “Selenophene anti-tumor agents” (priority 1996, published 2004).
Read-outs that look alike come from different tables or passages of the source.

How the values were obtained:
[1] = tested on: IGROV1; experiment: NCI human tumor cell panel: IGROV1 (Ovarian Cancer); assay type: cell-based; details: IGROV-1, IGROV1, Ovarian Cancer; for GI50: read-out: Log10 GI50 (converted); for IC (TGI): read-out: Log10 TGI (converted)
[2] = tested on: RXF-393; experiment: NCI human tumor cell panel: RXF-393 (Renal Cancer); assay type: cell-based; details: RXF-393, Renal Cancer; for GI50: read-out: Log10 GI50 (converted); for IC (TGI): read-out: Log10 TGI (converted)
[3] = tested on: COLO 205; experiment: NCI human tumor cell panel: COLO 205 (Colon Cancer); assay type: cell-based; details: COLO 205, Colon Cancer; for GI50: read-out: Log10 GI50 (converted); for IC (TGI): read-out: Log10 TGI (converted)
[4] = tested on: A549/ATCC; experiment: NCI human tumor cell panel: A549/ATCC (Non-Small Cell Lung Cancer); assay type: cell-based; details: Non-Small Cell Lung Cancer; for GI50: read-out: Log10 GI50 (converted); for IC (TGI): read-out: Log10 TGI (converted)
[5] = tested on: HS 578T; experiment: NCI human tumor cell panel: HS 578T (Breast Cancer); assay type: cell-based; details: Breast Cancer; for GI50: read-out: Log10 GI50 (converted); for IC (TGI): read-out: Log10 TGI (converted)
[6] = tested on: CCRF-CEM; experiment: NCI human tumor cell panel: CCRF-CEM (Leukemia); assay type: cell-based; details: Leukemia; for GI50: read-out: Log10 GI50 (converted); for IC (TGI): read-out: Log10 TGI (converted)
[7] = tested on: T-47D; experiment: NCI human tumor cell panel: T-47D (Breast Cancer); assay type: cell-based; details: T47D, Breast Cancer; for IC (TGI): read-out: Log10 TGI (converted)
[8] = tested on: SK-OV-3; experiment: NCI human tumor cell panel: SK-OV-3 (Ovarian Cancer); assay type: cell-based; details: SK-OV-3, Ovarian Cancer; for GI50: read-out: Log10 GI50 (converted); for IC (TGI): read-out: Log10 TGI (converted)
[9] = tested on: 786-0; experiment: NCI human tumor cell panel: 786-0 (Renal Cancer); assay type: cell-based; details: 786-0, Renal Cancer; for GI50: read-out: Log10 GI50 (converted); for IC (TGI): read-out: Log10 TGI (converted)
[10] = tested on: NCI-H226; experiment: NCI human tumor cell panel: NCI-H226 (Non-Small Cell Lung Cancer); assay type: cell-based; details: NCI-H226, Non-Small Cell Lung Cancer; for GI50: read-out: Log10 GI50 (converted); for IC (TGI): read-out: Log10 TGI (converted)
[11] = tested on: BT-549; experiment: NCI human tumor cell panel: BT-549 (Breast Cancer); assay type: cell-based; details: BT-549, Breast Cancer; for GI50: read-out: Log10 GI50 (converted); for IC (TGI): read-out: Log10 TGI (converted)
[12] = tested on: SNB-19; experiment: NCI human tumor cell panel: SNB-19 (CNS Cancer); assay type: cell-based; details: SNB-19, CNS Cancer; for GI50: read-out: Log10 GI50 (converted); for IC (TGI): read-out: Log10 TGI (converted)
[13] = tested on: OVCAR-5; experiment: NCI human tumor cell panel: OVCAR-5 (Ovarian Cancer); assay type: cell-based; details: OVCAR-5, Ovarian Cancer; for GI50: read-out: Log10 GI50 (converted); for IC (TGI): read-out: Log10 TGI (converted)
[14] = tested on: NCI-H23; experiment: NCI human tumor cell panel: NCI-H23 (Non-Small Cell Lung Cancer); assay type: cell-based; details: NCI-H23, Non-Small Cell Lung Cancer; for IC (TGI): read-out: Log10 TGI (converted)
[15] = tested on: SF-268; experiment: NCI human tumor cell panel: SF-268 (CNS Cancer); assay type: cell-based; details: SF-268, CNS Cancer; for GI50: read-out: Log10 GI50 (converted); for IC (TGI): read-out: Log10 TGI (converted)
[16] = tested on: SK-MEL-2; experiment: NCI human tumor cell panel: SK-MEL-2 (Melanoma); assay type: cell-based; details: SK-MEL-2, Melanoma; for GI50: read-out: Log10 GI50 (converted); for IC (TGI): read-out: Log10 TGI (converted)
[17] = tested on: SK-MEL-28; experiment: NCI human tumor cell panel: SK-MEL-28 (Melanoma); assay type: cell-based; details: SK-MEL-28, Melanoma; for GI50: read-out: Log10 GI50 (converted); for IC (TGI): read-out: Log10 TGI (converted)
[18] = tested on: panel of sixty different human tumor cell lines; experiment: NCI human tumor cell panel: whole panel (mean graph summary); details: for GI50 / CC50: Homo sapiens
[19] = tested on: PC-3; experiment: NCI human tumor cell panel: PC-3 (Prostate Cancer); assay type: cell-based; details: PC-3, Prostate Cancer; for GI50: read-out: Log10 GI50 (converted); for IC (TGI): read-out: Log10 TGI (converted)
[20] = tested on: NCI-H522; experiment: NCI human tumor cell panel: NCI-H522 (Non-Small Cell Lung Cancer); details: for GI50: NCI-H522, read-out: Log10 GI50 (converted); for IC (TGI): NCI-H522, read-out: Log10 TGI
[21] = tested on: SN12C; experiment: NCI human tumor cell panel: SN12C (Renal Cancer); assay type: cell-based; details: Renal Cancer; for GI50: read-out: Log10 GI50 (converted); for IC (TGI): read-out: Log10 TGI (converted)
[22] = tested on: MCF7/ADR-RES; experiment: NCI human tumor cell panel: MCF7/ADR-RES (Breast Cancer); assay type: cell-based; details: Breast Cancer; for GI50: read-out: Log10 GI50 (converted); for IC (TGI): read-out: Log10 TGI (converted)
[23] = tested on: A498; experiment: NCI human tumor cell panel: A498 (Renal Cancer); assay type: cell-based; details: A498, Renal Cancer
[24] = tested on: TK-10; experiment: NCI human tumor cell panel: TK-10 (Renal Cancer); assay type: cell-based; details: TK-10, Renal Cancer; for GI50: read-out: Log10 GI50 (converted); for IC (TGI): read-out: Log10 TGI (converted)
[25] = tested on: HL-60(TB); experiment: NCI human tumor cell panel: HL-60(TB) (Leukemia); assay type: cell-based; details: Leukemia; for GI50: read-out: Log10 GI50 (converted)
[26] = tested on: K-562; experiment: NCI human tumor cell panel: K-562 (Leukemia); assay type: cell-based; details: K562, K-562, Leukemia; for GI50: read-out: Log10 GI50 (converted); for IC (TGI): read-out: Log10 TGI (converted)
[27] = tested on: SK-MEL-5; experiment: NCI human tumor cell panel: SK-MEL-5 (Melanoma); assay type: cell-based; details: SK-MEL-5, Melanoma; for GI50: read-out: Log10 GI50 (converted); for IC (TGI): read-out: Log10 TGI (converted)
[28] = tested on: CAKI-1; experiment: NCI human tumor cell panel: CAKI-1 (Renal Cancer); assay type: cell-based; details: CAKI-1, Renal Cancer
[29] = tested on: MDA-MB-231/ATCC; experiment: NCI human tumor cell panel: MDA-MB-231/ATCC (Breast Cancer); assay type: cell-based; details: Homo sapiens, MDA-MB-231, MDA-MB-231/ATCC, Breast Cancer
[30] = read-out: Log10 GI50 (converted)
[31] = read-out: Log10 TGI (converted)

## O=Cc1ccc(-c2ccc(-c3cccs3)[se]2)s1 [NSC 675346]
[1]
  GI50: 0.162 µM
  IC (TGI): 0.562 µM
[2]
  GI50: 16.2 µM
  IC (TGI): 42.7 µM
[3]
  GI50: 4.79 µM
  IC (TGI): > 100 µM
[4]
  GI50: 55 µM
  IC (TGI): > 100 µM
[5]
  GI50: 23.4 µM
  IC (TGI): > 100 µM
[6]
  GI50: > 100 µM
  IC (TGI): > 100 µM
[7]; [30]
  GI50: 18.2 µM
[7]
  IC (TGI): 40.7 µM
[8]
  GI50: 12.6 µM
  IC (TGI): > 100 µM
[9]
  GI50: 13.5 µM
  IC (TGI): > 100 µM
[10]
  GI50: 0.0174 µM
  IC (TGI): 0.12 µM
[11]
  GI50: ≥ 100 µM
  IC (TGI): > 100 µM
[12]
  GI50: 21.9 µM
  IC (TGI): 95.5 µM
[13]
  GI50: 0.0447 µM
  IC (TGI): 0.575 µM
[14]; [30]
  GI50: 14.5 µM
[14]
  IC (TGI): 58.9 µM
[15]
  GI50: 19.1 µM
  IC (TGI): > 100 µM
[16]
  GI50: 24.5 µM
  IC (TGI): > 100 µM
[17]
  GI50: 44.7 µM
  IC (TGI): > 100 µM
[18]; read-out: Log10 GI50, cell line not given (converted)
  GI50: 1.7 µM
[18]; read-out: Log10 LC50, cell line not given (converted)
  CC50: > 100 µM
[18]; cell line not given
  Log10 TGI: >−4.00
[19]
  GI50: 61.7 µM
  IC (TGI): > 100 µM
[20]
  GI50: 33.1 µM
  IC (TGI): > 100 µM
[21]
  GI50: > 100 µM
  IC (TGI): > 100 µM
[22]
  GI50: 13.2 µM
  IC (TGI): 60.3 µM
[23]; [30]
  GI50: 0.145 µM
[23]; [31]
  IC (TGI): 0.295 µM
[24]
  GI50: 0.0631 µM
  IC (TGI): 0.417 µM
[25]
  GI50: > 100 µM
[25]; read-out: Log10 TGI
  IC (TGI): > 100 µM
[26]
  GI50: 2.29 µM
  IC (TGI): > 100 µM
[27]
  GI50: 46.8 µM
  IC (TGI): > 100 µM

## O=Cc1ccc(-c2ccc(-c3ccc(C=O)[se]3)s2)[se]1 [NSC 676630]
[1]
  GI50: 1.48 µM
  IC (TGI): > 100 µM
[2]
  GI50: > 100 µM
  IC (TGI): > 100 µM
[3]
  GI50: 93.3 µM
  IC (TGI): > 100 µM
[4]
  GI50: 87.1 µM
  IC (TGI): > 100 µM
[5]
  GI50: > 100 µM
  IC (TGI): > 100 µM
[6]
  GI50: > 100 µM
  IC (TGI): > 100 µM
[7]
  IC (TGI): > 100 µM
[8]
  GI50: > 100 µM
  IC (TGI): > 100 µM
[9]
  GI50: > 100 µM
  IC (TGI): > 100 µM
[10]
  GI50: 0.191 µM
  IC (TGI): 0.49 µM
[11]
  GI50: 63.1 µM
  IC (TGI): > 100 µM
[12]
  GI50: > 100 µM
  IC (TGI): > 100 µM
[13]
  GI50: 0.132 µM
  IC (TGI): 0.447 µM
[14]
  IC (TGI): > 100 µM
[15]
  GI50: > 100 µM
  IC (TGI): > 100 µM
[16]
  GI50: > 100 µM
  IC (TGI): > 100 µM
[28]; [30]
  GI50: 0.741 µM
[28]; [31]
  IC (TGI): 15.1 µM
[17]
  GI50: > 100 µM
  IC (TGI): > 100 µM
[18]; read-out: Delta Log10 GI50, whole panel, line Delta (converted)
  GI50: 26.3 µM
[18]; read-out: Delta Log10 LC50, whole panel, line Delta (converted)
  CC50: 85.1 µM
[19]
  GI50: > 100 µM
  IC (TGI): > 100 µM
[20]
  GI50: 20.9 µM
  IC (TGI): 53.7 µM
[21]
  GI50: > 100 µM
  IC (TGI): > 100 µM
[29]; [30]
  GI50: > 100 µM
[29]; [31]
  IC (TGI): > 100 µM
[22]
  GI50: 79.4 µM
  IC (TGI): > 100 µM
[24]
  GI50: 0.38 µM
  IC (TGI): 1.62 µM
[25]
  GI50: > 100 µM
[26]
  GI50: 3.39 µM
  IC (TGI): > 100 µM
[27]
  GI50: > 100 µM
  IC (TGI): > 100 µM
